The record followed here is ChEMBL document CHEMBL1201862, “PubChem BioAssay data set” (2004).

Calls of active or inactive are those of the source.

In data set [1] the test system is Streptococcus sp. 'group A'. Kind of data set: growth inhibition of control SK(-) GAS strain, dose response, counter-screen for streptokinase expression inhibitor project, luminescence, kanamycin, BacTiterGlo, confirmation (AID 1900). The data set is classed as functional, organism-based.
The test system of the next data set is Streptococcus. Kind of data set: Group A Streptococcus viability loss, dose response, counter-screen for streptokinase expression inhibitor project, luminescence, BacTiterGlo (AID 1915).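 Further: potency for reduction of bacterial viability or growth.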 Format: functional, organism-based.
The target of a further data set is Cytochrome P450 2C19 (Homo sapiens, UniProt P33261). Kind of data set: Cytochrome panel assay with activity outcomes. Panel member name: p450-cyp2c19 Compounds with AC50 equal or less than 10 uM are considered active. The data set is classed as functional.
Chain of Cytochrome P450 2C19 (P33261 whole entry): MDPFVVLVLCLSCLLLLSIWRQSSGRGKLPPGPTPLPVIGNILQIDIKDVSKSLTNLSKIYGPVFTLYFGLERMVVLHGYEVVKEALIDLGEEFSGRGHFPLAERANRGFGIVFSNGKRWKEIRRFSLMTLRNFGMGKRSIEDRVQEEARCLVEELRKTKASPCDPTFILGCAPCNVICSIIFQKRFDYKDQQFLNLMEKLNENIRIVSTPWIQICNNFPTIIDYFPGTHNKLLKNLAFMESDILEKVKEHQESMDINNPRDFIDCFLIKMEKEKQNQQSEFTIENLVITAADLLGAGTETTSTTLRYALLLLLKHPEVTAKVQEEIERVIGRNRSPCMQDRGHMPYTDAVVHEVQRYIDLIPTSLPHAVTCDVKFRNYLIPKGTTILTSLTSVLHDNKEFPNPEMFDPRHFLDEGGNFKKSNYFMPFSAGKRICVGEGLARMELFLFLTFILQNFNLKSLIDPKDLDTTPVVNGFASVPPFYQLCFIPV
Data set [2] in a line: inhibitors of intracellular T. cruzi replication, confirmation, NIH3T3 host cells, beta-gal luminescence (AID 2044).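 Further: intracellular parasites grown in NIH/3T3 mouse fibroblasts as host cells; luminescent beta-galactosidase reporter signal from transgenic T. cruzi replicating inside host cells; inhibitors lower the luminescence signal.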 Format: functional, cell-based.
Data set [3] can be described thus: cytotoxicity toward NIH3T3 fibroblasts, dose response, counter-screen, cell-based, ATP luminescence, mouse fibroblasts (AID 2010).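 Further: cells exposed to compound for about 90 hours before reading.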 Format: functional.
Another data set deals with T1, Streptokinase A (Streptococcus pyogenes serotype M1, UniProt P10520).
T1 sequence (P10520 whole entry): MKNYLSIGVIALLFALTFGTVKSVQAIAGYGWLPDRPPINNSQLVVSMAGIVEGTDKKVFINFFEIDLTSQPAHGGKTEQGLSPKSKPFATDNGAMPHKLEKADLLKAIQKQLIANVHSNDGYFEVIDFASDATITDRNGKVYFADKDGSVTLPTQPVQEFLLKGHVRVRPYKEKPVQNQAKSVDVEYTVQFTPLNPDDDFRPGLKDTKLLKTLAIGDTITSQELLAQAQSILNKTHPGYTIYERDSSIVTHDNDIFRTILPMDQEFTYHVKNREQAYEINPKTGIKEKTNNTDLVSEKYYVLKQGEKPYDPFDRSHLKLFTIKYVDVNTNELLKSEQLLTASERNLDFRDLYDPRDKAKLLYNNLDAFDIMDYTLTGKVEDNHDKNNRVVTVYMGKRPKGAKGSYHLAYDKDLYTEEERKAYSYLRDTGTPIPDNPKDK
Kind of data set: S. pyogenes streptokinase expression inhibitors, potency, dose response, plasminogen activation absorbance, OD405 (AID 1914).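 Further: secreted streptokinase activity via plasminogen activation per viability signal from cell pellet.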 Format: functional, Streptococcus pyogenes M1 GAS.

For `Cc1onc(-c2ccccc2)c1C(=O)NNC(=S)NC(=O)/C=C/c1cccs1`, the EC50 was 1.02 µM (active) in data set [1] and 2.02 µM (active) in the data set on Streptococcus.

With `CCn1c(S)nnc1CCNC(=O)c1ccc(Cl)cc1Cl`, the AC50 on Cytochrome P450 2C19 (read-out: AC50) was 10 µM (inconclusive).

Take `COCC1CCN(Cc2c[nH]nc2-c2cc3ccccc3o2)C1` (centres undefined): the concentration giving a half-maximal response (EC50) is 0.76 µM (active) in data set [2] and > 60 µM (not active) in data set [3].

With `CCCCN1C(=O)NC(=O)/C(=C(/CC)Nc2ccc3c(c2)CCC3)C1=O`, the EC50 in data set [1] is 15.9 µM (active); at Streptokinase A it was 74.1 µM (active); in the data set on Streptococcus, > 150 µM (not active).

Consider `CC(Oc1ccccc1)C(=O)NC1C(=O)N2C1SC(C)(C)C2C(=O)O` (centres undefined), for which the EC50 in data set [1] was 0.11 µM (active); in the data set with Streptococcus it was 0.124 µM (active).

Regarding `CCCCNc1c(-c2ccc(-c3ccc(C(C)=O)cc3)c(OC)c2)nc2cnccn12`, the half-maximal effective concentration (EC50) in data set [1] is 5.22 µM (active); at Streptokinase A, 114 µM (inconclusive); in the data set on Streptococcus it was 21.1 µM (active).

For the compound `CC(=O)c1ccc(NC(=O)CN2C(=O)/C(=C/C=C/c3ccccc3)SC2=S)cc1`, the EC50 at Streptokinase A and in the data set with Streptococcus was > 150 µM (not active) each time.

As for `COc1ccc(NS(=O)(=O)c2cccc(NC(=O)c3cnccn3)c2)cc1Br`, the EC50 is 1.79 µM (active) in data set [2] and > 60 µM (not active) in data set [3].

`Cc1c(C(=O)Nc2ccc(-c3nnc4n3CCCCC4)cc2)oc2ccc(Br)cc12`: the EC50 is 1.18 µM (active) in data set [2] and > 60 µM (not active) in data set [3].

In the case of `Cc1nn2c(O)cc(C(C)(C)C)nc2c1-c1ccccc1`, the EC50 in data set [1] was 2.71 µM (active); in data set [2], 1.85 µM (active); in data set [3], 4.17 µM (active); in the data set with Streptococcus it was 6.75 µM (active).

As to `COc1ccc(CNc2ccc(Cl)cc2)cc1Cn1ccnc1`, the half-maximal effective concentration (EC50) is 0.114 µM (active) in data set [2] and > 60 µM (not active) in data set [3].

`CCc1ccc(N(CC(=O)NC2CC2)S(=O)(=O)c2ccc(C)cc2)cc1`: the EC50 (in data set [1]; on Streptokinase A; in the data set with Streptococcus) was > 150 µM (not active) each time.

As to `C=CCN1C(=O)NC(=O)/C(=C(/C)Nc2ccc(N(CC)CC)cc2)C1=O`, the EC50 in data set [1] is 5.15 µM (active); on Streptokinase A, > 150 µM (not active); in the data set on Streptococcus, 14 µM (active).

Turning to `NC(=O)NC(=O)CSc1nc2cc([N+](=O)[O-])ccc2n1-c1cccc(C(F)(F)F)c1`, the EC50 in data set [1] is 0.301 µM (active); at Streptokinase A it was > 150 µM (not active); with Streptococcus it was 19.2 µM (active).

Consider `Cc1sc(NC(=O)c2ccco2)c(CN2CCN(Cc3ccccc3)CC2)c1C`, for which the concentration giving a half-maximal response (EC50) was 3.39 µM (active) in data set [2] and > 30 µM (not active) in data set [3].

Regarding `Cc1ccc(S(=O)(=O)Cn2nnnc2C(C(C)C)N2CCN(c3nc4ccccc4s3)CC2)cc1` (centres undefined), the EC50 in data set [2] was 0.532 µM (active); in data set [3] it was > 60 µM (inconclusive).

Consider `O=C(NC1CCN(Cc2ccccc2)CC1)c1ccccc1`, for which the 50% effective concentration (EC50) in data set [2] was 0.721 µM (active); in data set [3] it was 10.8 µM (active).

Take `CC(C)(C)c1ccc(C(=O)Nc2ccc(F)cc2)s1`: the EC50 (in data set [1]; on Streptokinase A; in the data set with Streptococcus) was > 150 µM (not active) throughout.

As to `C/C(CC(=O)Nc1ccccn1)=N\NC(=O)C(=O)Nc1cccc(Cl)c1C`, the AC50 at Cytochrome P450 2C19 (read-out: AC50) was 11.2 µM (inconclusive).

Regarding `COC(=O)c1ccc(-c2nc(CN3CCN(Cc4cccc(C)c4)CC3)c(C)o2)cc1`, the results for the EC50 in data set [2] and in data set [3] were 0.164 µM (active) and > 60 µM (not active), respectively.

`CC(=O)N1c2ccc(S(=O)(=O)N3CCC(C(=O)Nc4cc(C)ccn4)CC3)cc2CC1C` (centres undefined): the EC50 (in data set [1]; on Streptokinase A; in the data set on Streptococcus) was > 150 µM (not active) each time.

Turning to `CN(CCc1ccccn1)C1CCCN(S(=O)(=O)c2ccc(F)c(Cl)c2)C1` (centres undefined), the half-maximal effective concentration (EC50) in data set [2] was 1.2 µM (active); in data set [3], > 60 µM (not active).

As for `O=C(C[n+]1ccc2ccccc2c1)Nc1cc(C(F)(F)F)ccc1Cl`, the EC50 (in data set [1]; at Streptokinase A; in the data set with Streptococcus) was > 150 µM (not active) in each case.

Take `CN1CCN(CC(O)COC(c2ccccc2)c2ccccc2)CC1` (centres undefined): the results for the EC50 in data set [2] and in data set [3] were 1.3 µM (active) and > 30 µM (not active), respectively.

With `CC1CCN(CC(O)COCCC23CC4CC(CC(C4)C2)C3)CC1` (centres undefined), the EC50 in data set [2] is 0.164 µM (active); in data set [3], > 60 µM (not active).

Take `O=C(Nc1nc(N2C(=O)c3ccccc3C2=O)n(-c2ccccc2)n1)c1ccc(Cl)cc1`: the values for the EC50 (in data set [1]; on Streptokinase A; with Streptococcus) were 8.84 µM (active), > 150 µM (not active) and 22.9 µM (active), respectively.

Turning to `CCOC(=O)c1c(NC(=O)CSc2nnnn2-c2ccccc2)sc2c1CC(C)(C)NC2(C)C`, the EC50 in data set [2] is 0.831 µM (active); in data set [3] it was 8.34 µM (active).

With `COC(=O)[C@@]1(Cc2ccc(F)cc2)[C@H]2c3cc(C(=O)N(C)C)n(CCSCCO)c3C[C@H]2CN1C(=O)c1ccccc1`, the half-maximal activity concentration (AC50) on Cytochrome P450 2C19 (read-out: AC50) is 39.8 µM (inconclusive).

Regarding `CC(C)Cc1nnc(NC(=O)c2ccc([N+](=O)[O-])cc2)s1`, the AC50 entry on Cytochrome P450 2C19 is “inconclusive”.

For the compound `Cc1cc(=O)oc2cc(O)c(CN(C)CC(=O)O)cc12`, the AC50 result on Cytochrome P450 2C19 is reported as “inconclusive”.

Consider `C/C(=N\NC(=O)Cc1ccc(Cl)cc1)c1ccccc1O`, for which the figures for the EC50 in data set [2] and in data set [3] were 2.79 µM (active) and 10.8 µM (active), respectively.

On to `CC(C)C(=O)NC(=S)Nc1ccccc1N1CCN(C(=O)c2ccc(Cl)cc2)CC1`, for which the EC50 in data set [2] was 1.47 µM (active); in data set [3] it was > 60 µM (not active).

Consider `Cc1nn(Cc2ccc(Cl)cc2Cl)c(Cl)c1/C=N/NC(=O)CNc1cccc(C(F)(F)F)c1`, for which the EC50 in data set [2] is 2.62 µM (active); in data set [3] it was > 60 µM (inconclusive).

As for `CCOc1ccc(C(=O)NC(=S)Nc2ccc(N3CCOCC3)c(Cl)c2)cc1[N+](=O)[O-]`, the EC50 in data set [1] was 0.724 µM (active); at Streptokinase A, > 150 µM (not active); in the data set with Streptococcus it was 21.4 µM (active).

`O=C(Nc1ccc2c(c1)N(S(=O)(=O)c1cccs1)CCC2)c1c(F)cccc1Cl`: the EC50 (in data set [1]; on Streptokinase A; in the data set with Streptococcus) was > 150 µM (not active) in each case.

As to `N#Cc1c(NC(=O)CSc2nnc(Cc3ccccc3)[nH]2)oc(-c2ccccc2)c1-c1ccccc1`, the EC50 on Streptokinase A was 4.54 µM (active).

For the compound `COc1cc(/C=N/NC(=O)c2nnn(-c3nonc3N)c2C(C)C)ccc1OCc1ccc(F)cc1`, the EC50 was 8.61 µM (active) in data set [1], 13.4 µM (active) on Streptokinase A and 47 µM (active) in the data set on Streptococcus.

Consider `C[C@@H](C(=O)NCCc1ccccc1)N1C(=O)N2CCc3c([nH]c4ccccc34)[C@@]2(C)C1=O`, for which the half-maximal effective concentration (EC50) in data set [2] is 2 µM (active); in data set [3], > 60 µM (not active).
